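Five concentrations, 48 hours, 96-well plates. The concentration for full growth arrest is given as TGI.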
How the values were obtained:
Experiment in all cases: growth of human tumour cells (NCI), 48 h
M14 melanoma = test system: M14 melanoma
OVCAR-8 ovarian = test system: OVCAR-8 ovarian
SR leukemia = test system: SR leukemia
CCRF-CEM leukemia = test system: CCRF-CEM leukemia
DMS 114 small cell lung = test system: DMS 114 small cell lung
NCI-H226 lung = test system: NCI-H226 lung
SNB-75 CNS = test system: SNB-75 CNS
HT29 colon = test system: HT29 colon
CAKI-1 renal = test system: CAKI-1 renal
OVCAR-4 ovarian = test system: OVCAR-4 ovarian
RXF 393 renal = test system: RXF 393 renal
LXFL 529 NSCLC = test system: LXFL 529 NSCLC
KM12 colon = test system: KM12 colon
A498 renal = test system: A498 renal
786-0 renal = test system: 786-0 renal
SN12C renal = test system: SN12C renal
HOP-92 NSCLC = test system: HOP-92 NSCLC
OVCAR-3 ovarian = test system: OVCAR-3 ovarian
M19-MEL melanoma = test system: M19-MEL melanoma
RPMI-8226 leukemia = test system: RPMI-8226 leukemia
COLO 205 colon = test system: COLO 205 colon
EKVX NSCLC = test system: EKVX NSCLC
DLD-1 colon = test system: DLD-1 colon
HL-60(TB) leukemia = test system: HL-60(TB) leukemia
K-562 leukemia = test system: K-562 leukemia
SF-295 CNS = test system: SF-295 CNS
SK-MEL-28 melanoma = test system: SK-MEL-28 melanoma
U251 CNS = test system: U251 CNS
UO-31 renal = test system: UO-31 renal
OVCAR-5 ovarian = test system: OVCAR-5 ovarian
MOLT-4 leukemia = test system: MOLT-4 leukemia
HOP-18 NSCLC = test system: HOP-18 NSCLC
SK-MEL-5 melanoma = test system: SK-MEL-5 melanoma
SF-268 CNS = test system: SF-268 CNS
LOX IMVI melanoma = test system: LOX IMVI melanoma
HOP-62 NSCLC = test system: HOP-62 NSCLC
NCI-H522 lung = test system: NCI-H522 lung
A549 NSCLC = test system: A549 NSCLC
SW-620 colon = test system: SW-620 colon
DMS 273 small cell lung = test system: DMS 273 small cell lung
NCI-H460 lung = test system: NCI-H460 lung
UACC-257 melanoma = test system: UACC-257 melanoma
NCI-H23 lung = test system: NCI-H23 lung
SK-MEL-2 melanoma = test system: SK-MEL-2 melanoma
ACHN renal = test system: ACHN renal
SF-539 CNS = test system: SF-539 CNS
IGROV1 ovarian = test system: IGROV1 ovarian
MALME-3M melanoma = test system: MALME-3M melanoma
HCT-116 colon = test system: HCT-116 colon
TK-10 renal = test system: TK-10 renal
RXF-631 renal = test system: RXF-631 renal
UACC-62 melanoma = test system: UACC-62 melanoma
SK-OV-3 ovarian = test system: SK-OV-3 ovarian
SNB-19 CNS = test system: SNB-19 CNS
SNB-78 CNS = test system: SNB-78 CNS
HCC-2998 colon = test system: HCC-2998 colon
HCT-15 colon = test system: HCT-15 colon
KM20L2 colon = test system: KM20L2 colon

CCCCCCCCCCCCC(=O)CCCCC(=O)O
TGI (M14 melanoma): 33.6 µM
TGI (OVCAR-8 ovarian): 39.7 µM
TGI (SR leukemia): 47 µM
TGI (CCRF-CEM leukemia): > 100 µM
TGI (DMS 114 small cell lung): 42 µM
TGI (NCI-H226 lung): 59.1 µM
TGI (SNB-75 CNS): 71.1 µM
TGI (HT29 colon): 30.7 µM
TGI (CAKI-1 renal): > 100 µM
TGI (OVCAR-4 ovarian): > 100 µM
TGI (RXF 393 renal): > 100 µM
TGI (LXFL 529 NSCLC): 35.3 µM
TGI (KM12 colon): 29.5 µM
TGI (A498 renal): 36.3 µM
TGI (786-0 renal): 84.7 µM
TGI (SN12C renal): 55.8 µM
TGI (HOP-92 NSCLC): 41.5 µM
TGI (OVCAR-3 ovarian): > 100 µM
TGI (M19-MEL melanoma): 38.9 µM
TGI (RPMI-8226 leukemia): 40.8 µM
TGI (COLO 205 colon): 32.7 µM
TGI (EKVX NSCLC): > 100 µM
TGI (DLD-1 colon): 38.1 µM
TGI (HL-60(TB) leukemia): 33.4 µM
TGI (K-562 leukemia): 39.8 µM
TGI (SF-295 CNS): 51.2 µM
TGI (SK-MEL-28 melanoma): 46.5 µM
TGI (U251 CNS): 79 µM
TGI (UO-31 renal): 60 µM
TGI (OVCAR-5 ovarian): 35.8 µM
TGI (MOLT-4 leukemia): 35.7 µM
TGI (HOP-18 NSCLC): 59.3 µM
TGI (SK-MEL-5 melanoma): 34.1 µM
TGI (SF-268 CNS): 71.6 µM
TGI (LOX IMVI melanoma): 46.6 µM
TGI (HOP-62 NSCLC): 41.9 µM
TGI (NCI-H522 lung): 42.1 µM
TGI (A549 NSCLC): 44.6 µM
TGI (SW-620 colon): > 100 µM
TGI (DMS 273 small cell lung): > 100 µM
TGI (NCI-H460 lung): 39.1 µM
TGI (UACC-257 melanoma): > 100 µM
TGI (NCI-H23 lung): > 100 µM
TGI (SK-MEL-2 melanoma): 47.4 µM
TGI (ACHN renal): 73.7 µM
TGI (SF-539 CNS): 36.6 µM
TGI (IGROV1 ovarian): 35.3 µM
TGI (MALME-3M melanoma): 43.6 µM
TGI (HCT-116 colon): 54.6 µM
TGI (TK-10 renal): > 100 µM
TGI (RXF-631 renal): 38.6 µM
TGI (UACC-62 melanoma): 36.1 µM
TGI (SK-OV-3 ovarian): > 100 µM
TGI (SNB-19 CNS): > 100 µM
TGI (SNB-78 CNS): > 100 µM

COc1cc2c(c(OC)c1OC)CCNC2C1=C(O)COC1=O (centres undefined)
TGI (M14 melanoma): > 100 µM
TGI (OVCAR-8 ovarian): > 100 µM
TGI (SR leukemia): > 100 µM
TGI (HCC-2998 colon): > 100 µM
TGI (CCRF-CEM leukemia): > 100 µM
TGI (DMS 114 small cell lung): > 100 µM
TGI (HCT-15 colon): > 100 µM
TGI (NCI-H226 lung): 99.5 µM
TGI (SNB-75 CNS): > 100 µM
TGI (HT29 colon): > 100 µM
TGI (CAKI-1 renal): > 100 µM
TGI (OVCAR-4 ovarian): > 100 µM
TGI (RXF 393 renal): > 100 µM
TGI (LXFL 529 NSCLC): > 100 µM
TGI (KM12 colon): > 100 µM
TGI (A498 renal): > 100 µM
TGI (786-0 renal): > 100 µM
TGI (SN12C renal): > 100 µM
TGI (HOP-92 NSCLC): > 100 µM
TGI (KM20L2 colon): > 100 µM
TGI (M19-MEL melanoma): > 100 µM
TGI (RPMI-8226 leukemia): > 100 µM
TGI (COLO 205 colon): > 100 µM
TGI (DLD-1 colon): > 100 µM
TGI (HL-60(TB) leukemia): > 100 µM
TGI (K-562 leukemia): > 100 µM
TGI (SF-295 CNS): > 100 µM
TGI (U251 CNS): > 100 µM
TGI (UO-31 renal): > 100 µM
TGI (OVCAR-5 ovarian): > 100 µM
TGI (MOLT-4 leukemia): > 100 µM
TGI (HOP-18 NSCLC): > 100 µM
TGI (SK-MEL-5 melanoma): > 100 µM
TGI (SF-268 CNS): > 100 µM
TGI (LOX IMVI melanoma): > 100 µM
TGI (HOP-62 NSCLC): > 100 µM
TGI (NCI-H522 lung): > 100 µM
TGI (A549 NSCLC): > 100 µM
TGI (SW-620 colon): > 100 µM
TGI (DMS 273 small cell lung): > 100 µM
TGI (NCI-H460 lung): > 100 µM
TGI (UACC-257 melanoma): > 100 µM
TGI (SK-MEL-2 melanoma): > 100 µM
TGI (ACHN renal): > 100 µM
TGI (SF-539 CNS): > 100 µM
TGI (IGROV1 ovarian): > 100 µM
TGI (MALME-3M melanoma): > 100 µM
TGI (HCT-116 colon): > 100 µM
TGI (TK-10 renal): > 100 µM
TGI (RXF-631 renal): > 100 µM
TGI (UACC-62 melanoma): > 100 µM
TGI (SK-OV-3 ovarian): > 100 µM
TGI (SNB-19 CNS): > 100 µM
TGI (SNB-78 CNS): > 100 µM

Reference: PubChem BioAssay (NCI)
